# In patent US20200017495A1, “NOVEL HETEROCYCLIC COMPOUNDS AND THEIR USE IN PREVENTING OR TREATING BACTERIAL INFECTIONS” (priority 2017, published 2020):
# Where two headings read alike, the source gives them in different places.
# Legend:
# Assay in all cases: MIC of compounds alone and combined with antibacterials, broth microdilution (CLSI)
# Assay type in all cases: cell-based
# [1] = test system: Enterobacter cloacae (ECL) isolates; conditions: Enterobacter cloacae, read-out: MIC
# In short: (§1)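 Broth microdilution in cation-adjusted Mueller-Hinton broth, inoculum 5.10^5 CFU/mL, 16-20 h at 35° C in ambient air, on genotyped isolates. Compound MIC, alone or with an antibacterial, taken visually as lowest concentration preventing growth; antibacterial MIC determined at each compound concentration.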
# [2] = test system: Klebsiella pneumoniae (KPN) isolates; conditions: Klebsiella pneumoniae, read-out: MIC
# In short: as §1
# [3] = test system: Morganella morganii (MMO) isolates; conditions: Morganella morganii, read-out: MIC
# In short: as §1
# [4] = test system: Providencia rettgeri (PRE) isolates; conditions: Providencia rettgeri, read-out: MIC
# In short: as §1
compound,measurement,setting,value
O=C1N2CC(c3ncco3)=CC(C2)N1OC(F)(F)C(=O)[O-].[Li+] (stereo not drawn) [AF2],MIC,"[1]; ECL 190408, alone",4 µg/mL
same,MIC,"[1]; ECL HAN, alone",32 µg/mL
same,MIC,"[1]; ECL NEM146383, alone",32 µg/mL
same,MIC,"[1]; ECL P99, alone",8 µg/mL
same,MIC,"[1]; ECL UFR12, alone",16 µg/mL
same,MIC,"[1]; ECL UFR13, alone",16 µg/mL
same,MIC,"[1]; ECL UFR14, alone",16 µg/mL
same,MIC,"[1]; ECL UFR38, alone",8 µg/mL
same,MIC,"[1]; ECL UFR51, alone",8 µg/mL
same,MIC,"[1]; ECL UFR60, alone",16 µg/mL
same,MIC,"[1]; ECL UFR70, alone",8 µg/mL
same,MIC,"[1]; ECL UFR84, alone",32 µg/mL
same,MIC,"[1]; ECL UFR85, alone",8 µg/mL
same,MIC,"[1]; ECL UFR200, alone",32 µg/mL
same,MIC,"[1]; strain ECL UFR192, compound alone",16 µg/mL
same,MIC,"[1]; strain ECL UFR193, compound alone",16 µg/mL
same,MIC,"[1]; strain ECL UFR194, compound alone",8 µg/mL
same,MIC,"[1]; strain ECL UFR195, compound alone",16 µg/mL
same,MIC,"[1]; strain ECL UFR196, compound alone",16 µg/mL
same,MIC,"[1]; strain ECL UFR197, compound alone",8 µg/mL
same,MIC,"[1]; strain ECL UFR198, compound alone",32 µg/mL
same,MIC,"[1]; strain ECL UFR203, compound alone",32 µg/mL
same,MIC,"[1]; strain ECL UFR214, compound alone",32 µg/mL
same,MIC,"[1]; strain ECL UFR252PT, compound alone",> 32 µg/mL
same,MIC,"[2]; BAA1898, KPN BAA-1898, alone",8 µg/mL
same,MIC,"[2]; KPN 6299, alone",16 µg/mL
same,MIC,"[2]; KPN 110376, alone",8 µg/mL
same,MIC,"[2]; KPN 121206, alone",16 µg/mL
same,MIC,"[2]; KPN 131119, alone",8 µg/mL
same,MIC,"[2]; KPN 140513, alone",32 µg/mL
same,MIC,"[2]; KPN 160143, alone",8 µg/mL
same,MIC,"[2]; KPN 190128, alone",16 µg/mL
same,MIC,"[2]; KPN 190270, alone",16 µg/mL
same,MIC,"[2]; KPN 190425, alone",16 µg/mL
same,MIC,"[2]; KPN 190551, alone",4 µg/mL
same,MIC,"[2]; KPN 200047, alone",4 µg/mL
same,MIC,"[2]; KPN 200327, alone",4 µg/mL
same,MIC,"[2]; KPN 260251, alone",16 µg/mL
same,MIC,"[2]; KPN 260252, alone",16 µg/mL
same,MIC,"[2]; KPN 260376, alone",4 µg/mL
same,MIC,"[2]; KPN 270077, alone",> 32 µg/mL
same,MIC,"[2]; KPN 700603, alone",32 µg/mL
same,MIC,"[2]; KPN ARA, alone",8 µg/mL
same,MIC,"[2]; KPN LIB, alone",8 µg/mL
same,MIC,"[2]; KPN UFR22_O, alone",8 µg/mL
same,MIC,"[2]; KPN UFR23, alone",16 µg/mL
same,MIC,"[2]; KPN UFR24, alone",16 µg/mL
same,MIC,"[2]; KPN UFR25, alone",8 µg/mL
same,MIC,"[2]; KPN UFR27, alone",16 µg/mL
same,MIC,"[2]; KPN UFR43, alone",8 µg/mL
same,MIC,"[2]; KPN UFR46, alone",32 µg/mL
same,MIC,"[2]; KPN UFR53, alone",16 µg/mL
same,MIC,"[2]; KPN UFR68, alone",16 µg/mL
same,MIC,"[2]; KPN UFR76, alone",> 32 µg/mL
same,MIC,"[2]; KPN UFR77, alone",8 µg/mL
same,MIC,"[2]; KPN UFR78, alone",32 µg/mL
same,MIC,"[2]; KPN UFR79, alone",16 µg/mL
same,MIC,"[2]; KPN UFR80, alone",16 µg/mL
same,MIC,"[2]; KPN UFR81, alone",16 µg/mL
same,MIC,"[2]; KPN UFR215, alone",32 µg/mL
same,MIC,"[2]; KPN UFR216, alone",8 µg/mL
same,MIC,"[2]; KPN UFR217, alone",8 µg/mL
same,MIC,"[2]; KPN UFR218, alone",4 µg/mL
same,MIC,"[2]; KPN UFR222, alone",8 µg/mL
same,MIC,"[2]; KPN UFR227O, alone",> 32 µg/mL
same,MIC,"[2]; strain KPN 140347, compound alone",32 µg/mL
same,MIC,"[2]; strain KPN UFR162, compound alone",16 µg/mL
same,MIC,"[2]; strain KPN UFR163, compound alone",16 µg/mL
same,MIC,"[2]; strain KPN UFR164, compound alone",16 µg/mL
same,MIC,"[2]; strain KPN UFR165, compound alone",16 µg/mL
same,MIC,"[2]; strain KPN UFR166, compound alone",32 µg/mL
same,MIC,"[2]; strain KPN UFR167, compound alone",> 32 µg/mL
same,MIC,"[2]; strain KPN UFR168, compound alone",16 µg/mL
same,MIC,"[2]; strain KPN UFR169, compound alone",> 32 µg/mL
same,MIC,"[2]; strain KPN UFR170, compound alone",16 µg/mL
same,MIC,"[2]; strain KPN UFR171, compound alone",8 µg/mL
same,MIC,"[2]; strain KPN UFR172, compound alone",8 µg/mL
same,MIC,"[2]; strain KPN UFR229O, compound alone",16 µg/mL
same,MIC,"[3]; MMO 200321, alone",32 µg/mL
same,MIC,"[3]; MMO UFR144, alone",> 32 µg/mL
same,MIC,"[3]; MMO UFR240, alone",> 32 µg/mL
same,MIC,"[3]; MMO UFR241, alone",> 32 µg/mL
same,MIC,"[3]; MMO UFR242, alone",> 32 µg/mL
same,MIC,"[3]; MMO UFR243, alone",> 32 µg/mL
same,MIC,"[3]; MMO UFR244, alone",> 32 µg/mL
same,MIC,"[3]; MMO UFR245, alone",> 32 µg/mL
same,MIC,"[3]; MMO UFR246, alone",> 32 µg/mL
same,MIC,"[3]; MMO UFR247, alone",32 µg/mL
same,MIC,"[3]; strain MMO UFR145, compound alone",> 32 µg/mL
same,MIC,"[4]; PRE UFR99, alone",16 µg/mL
same,MIC,"[4]; strain PRE UFR96, compound alone",8 µg/mL
same,MIC,"[4]; strain PRE UFR97, compound alone",> 32 µg/mL
same,MIC,"[4]; strain PRE UFR236, compound alone",32 µg/mL
